Measurements taken from US20240318182A1, “METHODS OF TREATING OR PREVENTING SPINAL MUSCULAR ATROPHY” (BIOGEN MA INC., priority 2019, published 2024).

What was measured:
[1] = human, in vivo
Description: In studies to explore the relationship between nusinersen exposure and clinical response, data from subjects with infantile-onset SMA (subjects <6 months of age at diagnosis or symptom onset) were used. Analyses were conducted to characterize a quantitative PK/PD relationship for nusinersen and to determine if higher nusinersen exposure is associated with additional efficacy in the infantile-onset SMA population.

[2] = tested on: nonhuman primate; assay: Nonhuman primate safety studies; type: in vivo
[3] = tested on: pNf-H; assay: Plasma pNf-H biomarker in nusinersen clinical trials; type: in vivo, human; conditions: SMA types 1, 2 and presymptomatic infants
Excerpt: In nusinersen clinical trials with SMA types 1, 2 and presymptomatic infants, plasma pNf-H differentiated SMA individuals from healthy controls. […] Thus assessing the levels of neurofilament (e.g., pNf-H and/or NfL) can be a helpful biomarker prior or during treatment.

[4] = tested on: subjects with infantile-onset SMA; assay: PK/PD (Emax) model of CSF Ctrough versus change from baseline in CHOP-INTEND; design: species or system human; conditions: model projection
Excerpt: Dashed (long), solid, and dashed (shorter) line represents the predicted PK/PD relationship when Emax was fixed at 10, 25, and 40, respectively. The observed data are divided based on 10 quantiles of CSF Ctrough values. The empty and filled circles represent the mean observed and predicted change in CHOP-INTEND from baseline, respectively.

[5] = tested on: subjects with infantile-onset SMA; assay: Exposure-response and motor function / motor milestones in nusinersen clinical studies; type: in vivo, human
Description: During the nusinersen clinical development program, an exploratory exposure-response analysis was conducted using data for 14 subjects with infantile-onset SMA who received nusinersen. […] All subjects received maintenance doses of 12 mg every 4 months after Day 85. Separation of the response curves for the 2 cohorts began around Day 29 and became wider over the course of the study.

For nusinersen, the “maximum mean [SD] CSF Ctrough” value [1] was 31.3 [24.8] ng/mL, the “safety of 28 and 50 mg doses” value [2] was “support the use of these doses” and the “plasma pNf-H after treatment initiation” value [3] was “rapid decline followed by stabilization”. For the same substance, the “CSF Ctrough that will achieve 90% of the maximum observed response” value [4] was 23 ng/mL, the “attainment of motor milestones” value ([5]; 12 mg loading doses versus 6 mg loading doses on Days 1, 15, 85, infantile-onset SMA) was “earlier and greater improvement” and the “correlation between nusinersen CSF exposure and motor function” value ([5]; 14 subjects with infantile-onset SMA, exploratory exposure-response analysis) was “statistically significant positive correlation”. For the same substance, the “correlation between CSF Ctrough and total motor milestones scores” value ([5]; infantile- or later-onset SMA, 12 mg as 4 loading doses then every 4 months, preliminary analysis, data not shown) was “positive correlation” and the “improvement in motor function” value ([5]; more frequent dosing: 12 mg loading Days 1, 15, 29, 64, 12 mg maintenance every 4 months, infantile-onset SMA) was “Greater improvement”.
